Test results published in patent US20260256797A1, “NOVEL INDENONE DERIVATIVES AND USES THEREOF” (AMYLOID SOLUTION INC., priority 2022, published 2026).

What was measured:
[1] = molecular target: Tau-RD3 (Tau repeat domain 3) (Homo sapiens, UniProt P10636); assay: Tau disaggregation test by thioflavin-T assay; format: biochemical; conditions: 35 μM Tau-RD3 aggregated 24 hours, then compound 0-500 μM for 48 hours at 37° C.
Experimental: (§1) Each compound was dissolved in DMSO to a concentration of 10 mM. Subsequently, the compound was diluted with 6% DMSO (in DW) and used.
(§2) Specifically, amyloid-beta and tau solutions were prepared by dissolving Aβ1-42 or Tau-RD3 (Tau repeat domain 3) monomer in DMSO to a concentration of 10 mM. Thereafter, each solution was diluted with DW to a concentration of 100 μM and stored on ice. Meanwhile, thioflavin-T was dissolved in 50 mM glycine buffer (pH 8.5) to a concentration of 5 mM. Thereafter, the resulting solution was diluted with 50 mM glycine buffer (pH 8.5) to a concentration of 5 μM and stored in a dark room while light was blocked.
(§3) Each of the amyloid-beta and tau solutions prepared according to Experimental Example 1.1 was added to a 1.5 mL microcentrifuge tube to a concentration of 50 μM or 35 µM, and then a reaction was allowed to occur therebetween at 37° C. for 24 hours. Each of the 1.5 mL microcentrifuge tubes in which amyloid-beta aggregation and tau aggregation had been completed was treated with each compound at a concentrated of 500 μM to 0 μM through serial dilution, and then a further reaction was allowed to occur therebetween at 37° C. for 48 hours. 25 μL of the reaction solution in which the reaction had been completed was added to each well of a 96-well plate for fluorescence analysis, and 75 μL of the previously prepared thioflavin-T solution was added to each well. After a reaction was allowed to occur at room temperature in the dark for 5 minutes, fluorescence values were measured at excitation 450 nm and emission 485 nm by using a multi-mode microplate reader.
(§4) The fluorescence value of a group (control) treated with amyloid-beta or tau alone, followed by aggregation for 72 hours was converted into a percentage value and expressed as 100, and amyloid-beta and tau aggregates, in which aggregation had been completed upon reaction for 24 hours, were treated with each compound at each concentration and a further reaction was allowed to occur therebetween for 48 hours, and then fluorescence values thereof were measured and converted into relative values. The results thereof are illustrated in FIGS. 1 to 6 and 7 to 12. In addition, EC50 values of the compounds of the present disclosure for amyloid-beta and tau, respectively are summarized in Table 1.

Aβ1-42 = molecular target: T1, Aβ1-42 (Homo sapiens, UniProt P05067); assay: Amyloid-beta (Aβ) disaggregation test by thioflavin-T assay; format: biochemical; conditions: 50 μM Aβ1-42 aggregated 24 hours, then compound 0-500 μM for 48 hours at 37° C.
T1 construct: dissolving Aβ1-42 or Tau-RD3 (Tau repeat domain 3) monomer in DMSO
T1 sequence (P05067 672-713 limits assumed): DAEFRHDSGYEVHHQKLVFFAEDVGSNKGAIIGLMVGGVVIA
Experimental: as §1, §2, §3, §4

Chain of Tau-RD3 (Tau repeat domain 3) (P10636 623-653 limits assumed): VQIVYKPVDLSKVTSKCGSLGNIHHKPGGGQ

Row | SMILES | EC50 [1] | EC50 (Aβ1-42)
1 | Cc1scnc1C1=C(c2cccs2)C(=O)c2cc(OCCOc3ccc(Cl)c(Cl)c3)ccc21 [Compound 36, 6-(2-(3,4-dichlorophenoxy)ethoxy)-3-(5-methylthiazol-4-yl)-2-(thiophen-2-yl)-1H-inden-1-one] | > 500 µM | 26 µM
2 | Cc1scnc1C1=C(c2cccs2)C(=O)c2cc(OCCOc3ccc(F)c(F)c3)ccc21 [Compound 37, 6-(2-(3,4-difluorophenoxy)ethoxy)-3-(5-methylthiazol-4-yl)-2-(thiophen-2-yl)-1H-inden-1-one] | 470 µM | 46.3 µM
3 | O=C1C(c2cccnc2)=C(c2ccoc2)c2ccc(OCCc3ccccc3)cc21 [Compound 38, 3-(furan-3-yl)-6-phenethoxy-2-(pyridin-3-yl)-1H-inden-1-one] | 120 µM | 3 µM
4 | O=C1C(c2cccnc2)=C(c2ccoc2)c2ccc(OCCCCc3ccccc3)cc21 [Compound 39, 3-(furan-3-yl)-6-(4-phenylbutoxy)-2-(pyridin-3-yl)-1H-inden-1-one] | 10.7 µM | 2.6 µM
5 | O=C1C(c2cccnc2)=C(c2ccoc2)c2ccc(OCOCc3ccccc3)cc21 [Compound 40, 6-((benzyloxy)methoxy)-3-(furan-3-yl)-2-(pyridin-3-yl)-1H-inden-1-one] | 67.1 µM | 2.1 µM
6 | COc1ccc(OCCOc2ccc3c(c2)C(=O)C(c2cccnc2)=C3c2ccoc2)cc1OC [Compound 43, 6-(2-(3,4-dimethoxyphenoxy)ethoxy)-3-(furan-3-yl)-2-(pyridin-3-yl)-1H-inden-1-one] | 2.8 µM | 1.8 µM
7 | O=C1C(c2cccnc2)=C(c2ccoc2)c2ccc(OCCOc3ccc4c(c3)OCO4)cc21 [Compound 44, 6-(2-(benzo[d][1,3]dioxol-5-yloxy)ethoxy)-3-(furan-3-yl)-2-(pyridin-3-yl)-1H-inden-1-one] | 2.7 µM | 1.8 µM
8 | O=C1C(c2cccnc2)=C(c2ccoc2)c2ccc(OCCOc3ccc(F)c(F)c3)cc21 [Compound 47, 6-(2-(3,4-difluorophenoxy)ethoxy)-3-(furan-3-yl)-2-(pyridin-3-yl)-1H-inden-1-one] | 57 µM | 1.7 µM
9 | CN(C)c1ccc(OCCOc2ccc3c(c2)C(=O)C(c2cccnc2)=C3c2ccoc2)cc1 [Compound 48, 6-(2-(4-(dimethylamino)phenoxy)ethoxy)-3-(furan-3-yl)-2-(pyridin-3-yl)-1H-inden-1-one] | 4.1 µM | 2.3 µM
10 | COc1ccc(COCOc2ccc3c(c2)C(=O)C(c2cccnc2)=C3c2ccoc2)cc1 [Compound 50, 3-(furan-3-yl)-6-(((4-methoxybenzyl)oxy)methoxy)-2-(pyridin-3-yl)-1H-inden-1-one] | 19.9 µM | 2.3 µM

The remaining lines, values ahead:

Row | EC50 [1] | EC50 (Aβ1-42) | SMILES
11 | 4.8 µM | 1.1 µM | O=C1C(c2cccnc2)=C(c2ccoc2)c2ccc(OCCOc3ccccc3)cc21 [Compound 41, 3-(furan-3-yl)-6-(2-phenoxyethoxy)-2-(pyridin-3-yl)-1H-inden-1-one]
12 | 124 µM | 31.2 µM | COc1ccc(OCCOc2ccc3c(c2)C(=O)C(c2cccnc2)=C3c2ccoc2)cc1 [Compound 42, 3-(furan-3-yl)-6-(2-(4-methoxyphenoxy)ethoxy)-2-(pyridin-3-yl)-1H-inden-1-one]
13 | 11.9 µM | 9.1 µM | O=C1C(c2cccnc2)=C(c2ccoc2)c2ccc(OCCOc3ccncc3)cc21 [Compound 45, 3-(furan-3-yl)-2-(pyridin-3-yl)-6-(2-(pyridin-4-yloxy)ethoxy)-1H-inden-1-one]
14 | 2.1 µM | 1.4 µM | O=C1C(c2cccnc2)=C(c2ccoc2)c2ccc(OCCOc3ccc(Cl)c(Cl)c3)cc21 [Compound 46, 6-(2-(3,4-dichlorophenoxy)ethoxy)-3-(furan-3-yl)-2-(pyridin-3-yl)-1H-inden-1-one]
15 | 1.9 µM | 1.5 µM | CC(C)c1ccc(OCCOc2ccc3c(c2)C(=O)C(c2cccnc2)=C3c2ccoc2)cc1 [Compound 49, 3-(furan-3-yl)-6-(2-(4-isopropylphenoxy)ethoxy)-2-(pyridin-3-yl)-1H-inden-1-one]
